Data published in ChEMBL document CHEMBL3734705, “Synthesis and in vitro cytotoxicity of novel C-12 substituted-14-deoxy-andrographolide derivatives as potent anti-cancer agents” (2015).

Columns and labels:
[1] = system: KM12; test: Cytotoxicity against human KM12 cells assessed as growth inhibition at 10 uM after 48 hrs by SRB assay; type: functional; conditions: KM12, 48 h, read-out: GI
[2] = system: MDA-MB-231; test: Cytotoxicity against human MDA-MB-231 cells assessed as growth level at 10 uM after 48 hrs by SRB assay; type: functional
[3] = Cytotoxicity against human Caki1 cells assessed as growth inhibition at 10 uM after 48 hrs by SRB assay; type: functional; conditions: CAKI-1, 48 h, read-out: GI
[4] = Cytotoxicity against human COLO205 cells assessed as growth inhibition at 10 uM after 48 hrs by SRB assay; type: functional; conditions: COLO 205, 48 h, read-out: GI
[5] = Cytotoxicity against human BT549 cells assessed as growth level at 10 uM after 48 hrs by SRB assay; type: functional, BT-549
[6] = Cytotoxicity against human OVCAR3 cells assessed as growth inhibition at 10 uM after 48 hrs by SRB assay; type: functional; conditions: OVCAR-3, 48 h, read-out: GI
[7] = system: ACHN; test: Cytotoxicity against human ACHN cells assessed as growth level at 10 uM after 48 hrs by SRB assay; type: functional
[8] = system: U-251; test: Cytotoxicity against human U251 cells assessed as growth inhibition at 10 uM after 48 hrs by SRB assay; type: functional; conditions: U-251, 48 h, read-out: GI
[9] = system: 786-0; test: Cytotoxicity against human 786-0 cells assessed as growth inhibition at 10 uM after 48 hrs by SRB assay; type: functional; conditions: 786-0, 48 h, read-out: GI
[10] = Cytotoxicity against human HL-60(TB) cells assessed as growth level at 10 uM after 48 hrs by SRB assay; type: functional
[11] = Cytotoxicity against human UO31 cells assessed as growth inhibition at 10 uM after 48 hrs by SRB assay; type: functional; conditions: UO-31, 48 h, read-out: GI
[12] = Cytotoxicity against human HCT15 cells assessed as growth level at 10 uM after 48 hrs by SRB assay; type: functional, HCT-15
[13] = Cytotoxicity against human HOP62 cells assessed as growth inhibition at 10 uM after 48 hrs by SRB assay; type: functional; conditions: HOP-62, 48 h, read-out: GI
[14] = system: SN12C; test: Cytotoxicity against human SN12C cells assessed as growth inhibition at 10 uM after 48 hrs by SRB assay; type: functional; conditions: read-out: GI
[15] = system: T47D; test: Cytotoxicity against human T47D cells assessed as growth inhibition at 10 uM after 48 hrs by SRB assay; type: functional; conditions: read-out: GI
[16] = Cytotoxicity against human OVCAR3 cells assessed as growth level at 10 uM after 48 hrs by SRB assay; type: functional, OVCAR-3
[17] = Cytotoxicity against human NCI-ADR-RES cells assessed as growth inhibition at 10 uM after 48 hrs by SRB assay; type: functional; conditions: read-out: GI
[18] = Cytotoxicity against human TK10 cells assessed as growth inhibition at 10 uM after 48 hrs by SRB assay; type: functional; conditions: TK-10, 48 h, read-out: GI
[19] = system: A549; test: Cytotoxicity against human A549 cells assessed as growth level at 10 uM after 48 hrs by SRB assay; type: functional
[20] = system: NCI-H226; test: Cytotoxicity against human NCI-H226 cells assessed as growth level at 10 uM after 48 hrs by SRB assay; type: functional
[21] = Cytotoxicity against human PC3 cells assessed as growth level at 10 uM after 48 hrs by SRB assay; type: functional, PC-3
[22] = Cytotoxicity against human OVCAR4 cells assessed as growth inhibition at 10 uM after 48 hrs by SRB assay; type: functional; conditions: OVCAR-4, 48 h, read-out: GI
[23] = system: MDA-MB-231; test: Cytotoxicity against human MDA-MB-231 cells assessed as growth inhibition at 10 uM after 48 hrs by SRB assay; type: functional; conditions: MDA-MB-231, 48 h, read-out: GI
[24] = system: NCI-H460; test: Cytotoxicity against human NCI-H460 cells assessed as growth level at 10 uM after 48 hrs by SRB assay; type: functional
[25] = system: M14; test: Cytotoxicity against human M14 cells assessed as growth level at 10 uM after 48 hrs by SRB assay; type: functional
[26] = Cytotoxicity against human HCT116 cells assessed as growth inhibition at 10 uM after 48 hrs by SRB assay; type: functional; conditions: HCT-116, 48 h, read-out: GI
[27] = system: SK-MEL-28; test: Cytotoxicity against human SK-MEL-28 cells assessed as growth level at 10 uM after 48 hrs by SRB assay; type: functional
[28] = Cytotoxicity against human RXF393 cells assessed as growth inhibition at 10 uM after 48 hrs by SRB assay; type: functional; conditions: RXF 393, 48 h, read-out: GI
[29] = system: EKVX; test: Cytotoxicity against human EKVX cells assessed as growth inhibition at 10 uM after 48 hrs by SRB assay; type: functional; conditions: read-out: GI
[30] = system: A498; test: Cytotoxicity against human A498 cells assessed as growth inhibition at 10 uM after 48 hrs by SRB assay; type: functional; conditions: A498, 48 h, read-out: GI
[31] = system: K562; test: Cytotoxicity against human K562 cells assessed as growth level at 10 uM after 48 hrs by SRB assay; type: functional
[32] = Cytotoxicity against human SNB19 cells assessed as growth inhibition at 10 uM after 48 hrs by SRB assay; type: functional; conditions: SNB-19, 48 h, read-out: GI
[33] = system: A549; test: Cytotoxicity against human A549 cells assessed as growth inhibition at 10 uM after 48 hrs by SRB assay; type: functional; conditions: A549, 48 h, read-out: GI
[34] = Cytotoxicity against human UACC257 cells assessed as growth inhibition at 10 uM after 48 hrs by SRB assay; type: functional; conditions: UACC-257, 48 h, read-out: GI
[35] = Cytotoxicity against human Hs578T cells assessed as growth inhibition at 10 uM after 48 hrs by SRB assay; type: functional; conditions: Hs-578T, read-out: GI
[36] = Cytotoxicity against human SF295 cells assessed as growth level at 10 uM after 48 hrs by SRB assay; type: functional, SF-295
[37] = Cytotoxicity against human SKOV3 cells assessed as growth level at 10 uM after 48 hrs by SRB assay; type: functional, SK-OV-3
[38] = system: M14; test: Cytotoxicity against human M14 cells assessed as growth inhibition at 10 uM after 48 hrs by SRB assay; type: functional; conditions: M14, 48 h, read-out: GI
[39] = Cytotoxicity against human SF539 cells assessed as growth level at 10 uM after 48 hrs by SRB assay; type: functional, SF-539
[40] = system: NCI-H522; test: Cytotoxicity against human NCI-H522 cells assessed as growth level at 10 uM after 48 hrs by SRB assay; type: functional
[41] = system: SK-MEL-28; test: Cytotoxicity against human SK-MEL-28 cells assessed as growth inhibition at 10 uM after 48 hrs by SRB assay; type: functional; conditions: SK-MEL-28, 48 h, read-out: GI
[42] = system: MCF7; test: Cytotoxicity against human MCF7 cells assessed as growth level at 10 uM after 48 hrs by SRB assay; type: functional
[43] = Cytotoxicity against human DU145 cells assessed as growth level at 10 uM after 48 hrs by SRB assay; type: functional, DU-145
[44] = Cytotoxicity against human SNB75 cells assessed as growth inhibition at 10 uM after 48 hrs by SRB assay; type: functional; conditions: SNB-75, 48 h, read-out: GI

Work on C=C1CC[C@@H]2[C@](C)(COC(C)=O)[C@H](OC(C)=O)CC[C@@]2(C)[C@@H]1CC(NCc1cccc(Cl)c1)C1=CCOC1=O (mixture of isomers) yielded an inhibition of growth at 10 µM [1] of 53.2%, an Activity [2] of 65% and an inhibition of growth at 10 µM [3] of 51.7%. It also gave an inhibition of growth at 10 µM [4] of 63.2%, an Activity [5] of 49.66% and an inhibition of growth at 10 µM [6] of 52.6%. It also gave an Activity [7] of 41.58%, an inhibition of growth at 10 µM [8] of 69.1% and an inhibition of growth at 10 µM [9] of 38%. The Activity [10] was 21.57%, the inhibition of growth at 10 µM [11] was 53.1% and the Activity [12] was 37.72%. For the same compound, the inhibition of growth at 10 µM [13] was 44%, the inhibition of growth at 10 µM [14] was 37.9% and the inhibition of growth at 10 µM [15] was 49.3%. It also gave an Activity [16] of 47.44%, an inhibition of growth at 10 µM [17] of 39.7% and an inhibition of growth at 10 µM [18] of 36.7%. It also gave an Activity [19] of 54.21%, an Activity [20] of 46.32% and an Activity [21] of 30.08%. For the same compound, the inhibition of growth at 10 µM [22] was 49.6%, the inhibition of growth at 10 µM [23] was 35% and the Activity [24] was 34.79%. For the same compound, the Activity [25] was 55.02%, the inhibition of growth at 10 µM [26] was 64.1% and the Activity [27] was 76.6%. For the same compound, the inhibition of growth at 10 µM [28] was 49.5%, the inhibition of growth at 10 µM [29] was 22.1% and the inhibition of growth at 10 µM [30] was 35.2%. The Activity [31] was 18.48%, the inhibition of growth at 10 µM [32] was 44.4% and the inhibition of growth at 10 µM [33] was 45.8%. The inhibition of growth at 10 µM [34] was 74.8%, the inhibition of growth at 10 µM [35] was 5.65% and the Activity [36] was 85.92%. The Activity [37] was 73.11%, the inhibition of growth at 10 µM [38] was 45% and the Activity [39] was 74.12%. It also gave an Activity [40] of 52.45%, an inhibition of growth at 10 µM [41] of 23.4% and an Activity [42] of 42.95%. The Activity [43] was 81.85% and the inhibition of growth at 10 µM [44] was 14.1%.
